Target: recombinant human Myt1 (Homo sapiens (Human), UniProt Q99640)
Assay: Myt1 enzymatic assay (ADP-Glo kinase assay)
Type: biochemical
Details: 18 nM enzyme, 10 uM ATP
Procedure: Detection of Myt1 kinase activity utilized a recombinant human Myt1 kinase assay measuring the hydrolysis of ATP using a commercially available ADP-Glo Assay (ADP-Glo™ Kinase Assay from Promega, 10 000 assays, #V9102). […] After this, 5 μL of compounds (diluted in reaction buffer to 0.5% DMSO) was added to the microplate and the plate was spun briefly and incubated at 22° C. for 15 minutes. Ultra-Pure Adenosine Triphosphate (ATP) solution (ADP-Glo kit from Promega) was diluted in reaction buffer and 5 μL was added to the microplate, spun down briefly and incubated for 60 minutes at 30° C. […] After the 60-minute incubation, 15 µL of ADP-Glo reagent was added and the plate was spun briefly and sealed and incubated in the dark for 40 minutes at 22° C. […] Luminescence was read using the Envision (250 ms integration). The IC50 and the % max inhibition were calculated for each inhibitor compound tested.

Sequence of recombinant human Myt1 (Q99640 whole entry): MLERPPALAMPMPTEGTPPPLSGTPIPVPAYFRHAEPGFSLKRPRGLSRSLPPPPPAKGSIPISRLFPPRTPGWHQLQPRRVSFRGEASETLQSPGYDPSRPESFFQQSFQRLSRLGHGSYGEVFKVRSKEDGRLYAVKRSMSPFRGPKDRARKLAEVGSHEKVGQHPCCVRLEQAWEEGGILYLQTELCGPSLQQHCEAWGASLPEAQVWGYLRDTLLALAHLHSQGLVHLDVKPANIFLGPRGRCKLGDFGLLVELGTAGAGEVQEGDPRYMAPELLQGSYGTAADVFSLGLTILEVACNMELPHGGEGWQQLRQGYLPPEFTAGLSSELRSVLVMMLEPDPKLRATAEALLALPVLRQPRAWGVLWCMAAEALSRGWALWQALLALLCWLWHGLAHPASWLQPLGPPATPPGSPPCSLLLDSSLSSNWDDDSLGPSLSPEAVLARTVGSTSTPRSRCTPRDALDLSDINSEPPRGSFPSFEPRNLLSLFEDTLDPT

Structure (SMILES)	IC50 [nM]
Cc1ccc(O)c(Br)c1-n1c(N)c(C(N)=O)c2cc(Cl)cnc21 [Compound 289]	< 10
Cc1ccc(O)c(C)c1-n1c(N)c(C(N)=O)c2cc(-c3ccccn3)cnc21 [Compound 295]	< 10
Cc1ccc(O)c(C)c1-n1c(N)c(C(N)=O)c2cc(N3CCCC3=O)cnc21 [Compound 298]	< 10
Cc1ccc(O)c(C)c1-n1c(N)c(C(N)=O)c2cc(C3=CCOCC3)cnc21 [Compound 304]	< 10
Cc1ccc(O)c(C)c1-n1c(N)c(C(N)=O)c2cc(-c3nccs3)cnc21 [Compound 308]	< 10
Cc1ccc(O)c(C)c1-n1c(N)c(C(N)=O)c2cc(S(=O)(=O)C3CC3)cnc21 [Compound 311]	< 10
Cc1ccc(O)c(C)c1-n1c(N)c(C(N)=O)c2cc(C#N)cnc21 [Compound 312]	< 10
Cc1ccc(O)c(C)c1-n1c(N)c(C(N)=O)c2c(C)c(Cl)cnc21 [Compound 313]	< 10
Cc1ccc(O)c(C)c1-n1c(N)c(C(N)=O)c2c(Cl)c(Cl)cnc21 [Compound 316]	< 10
Cc1ccc(O)c(C)c1-n1c(N)c(C(N)=O)c2cc(I)cnc21 [Compound 319]	< 10
Cc1ccc(O)c(Cl)c1-n1c(N)c(C(N)=O)c2cc(Cl)cnc21 [Compound 327]	< 10
Cc1ccc(O)c(C)c1-n1c(N)c(C(N)=O)c2cccnc21 [Compound 328]	< 10
Cc1ccc2[nH]ncc2c1-n1c(N)c(C(N)=O)c2nccnc21 [Compound 329]	1320
NC(=O)c1c(N)n(-c2cccc3[nH]ncc23)c2ncc(C3CC3)nc12 [Compound 330, 6-amino-2-cyclopropyl-5-(1H-indazol-4-yl)pyrrolo[2,3-b]pyrazine-7-carboxamide]	106
CCCCc1cnc2c(n1)c(C(N)=O)c(N)n2-c1cccc2[nH]ncc12 [Compound 331]	1320
NC(=O)c1c(N)n(-c2cccc3[nH]ncc23)c2ncc(-c3nccs3)nc12 [Compound 332]	142
NC(=O)c1c(N)n(-c2cccc3[nH]ncc23)c2ncc(-c3ncc(F)cc3F)nc12 [Compound 333, 6-amino-2-(3,5-difluoro-2-pyridyl)-5-(1H-indazol-4-yl)pyrrolo[2,3-b]pyrazine-7-carboxamide]	52
NC(=O)c1c(N)n(-c2cccc3[nH]ncc23)c2ncc(Cl)cc12 [Compound 334, 2-amino-5-chloro-1-(1H-indazol-4-yl)pyrrolo[2,3-b]pyridine-3-carboxamide]	50
Cc1ccc2[nH]ncc2c1-n1c(N)c(C(N)=O)c2cc(Cl)cnc21 [Compound 335]	40
Cc1cc2c(C(N)=O)c(N)c(-c3c(C)ccc(O)c3C)n2cc1C [Compound 336, 2-amino-3-(3-hydroxy-2,6-dimethylphenyl)-6,7-dimethylindolizine-1-carboxamide]	38
Cc1cn2c(C(N)=O)c(N)c(-c3c(C)ccc(O)c3C)c2nc1C [Compound 337, 7-amino-8-(3-hydroxy-2,6-dimethylphenyl)-2,3-dimethylpyrrolo[1,2-a]pyrimidine-6-carboxamide]	< 10
Cc1cc2c(-c3c(C)ccc(O)c3C)c(N)c(C(N)=O)n2cc1C [Compound 338, 2-amino-1-(3-hydroxy-2,6-dimethylphenyl)-6,7-dimethylindolizine-3-carboxamide]	108
Cc1ccc(O)cc1-c1cn(C(N)=O)c2cc(Cl)cnc12 [Compound 345, 6-chloro-3-(5-hydroxy-2-methyl-phenyl) pyrrolo[3,2-b]pyridine-1-carboxamide]	323
Cc1ccc(O)c(C)c1-n1cc(C(N)=O)c2cc(Cl)ccc21 [Compound 346, 5-chloro-1-(3-hydroxy-2,6-dimethylphenyl)-1H-indole-3-carboxamide]	234
